Assay: Increase in solubility of Compound A in dichloromethane/methanol by addition of metal compound
Type: physicochemical
Conditions: solvent dichloromethane/methanol=7/3
Description: Increase in solubility of poorly water-soluble nonpeptidic physiologically active compound by addition of metal compound
An amount of a solvent (dichloromethane/methanol=7/3) which can dissolve 0.1 g of 2-ethoxy-1-[[2′-(1H-tetrazol-5-yl)biphenyl-4-yl]methyl]benzimidazole-7-carboxylic acid (hereinafter, abbreviated as Compound A) is shown in Table 1.

Amount of solvent which can dissolve 0.1 g of Compound A (magnesium acetate tetrahydrate 48.7 mg added): 0.5 mL
Amount of solvent which can dissolve 0.1 g of Compound A (no metal compound added): 3 mL
Amount of solvent which can dissolve 0.1 g of Compound A (zinc acetate dihydrate 49.8 mg added): 0.5 mL
SMILES: CCOc1nc2cccc(C(=O)O)c2n1Cc1ccc(-c2ccccc2-c2nnn[nH]2)cc1 [Compound A, 2-ethoxy-1-[[2′-(1H-tetrazol-5-yl)biphenyl-4-yl]methyl]benzimidazole-7-carboxylic acid]

Source: patent publication US20040121008A1, “Process for producing sustained release preparation” (priority 2001, published 2004)
